Source: the supplement of paper PMC10307832

How the values were obtained:
Assay in all cases: relative viability (nuclei count vs DMSO), 5 days (fraction); higher = more cells survive
CAP-232 + Lapatinib = compound: C[C@H]([C@@H](C(=O)N)NC(=O)[C@@H]1CSSC[C@@H](C(=O)N[C@H](C(=O)N[C@@H](C(=O)N[C@H](C(=O)N1)CCCCN)CC2=CNC3=CC=CC=C32)CC4=CC=C(C=C4)O)NC(=O)[C@@H](CC5=CC=CC=C5)N)O [CAP-232] + CS(=O)(=O)CCNCc1ccc(-c2ccc3ncnc(Nc4ccc(OCc5cccc(F)c5)c(Cl)c4)c3c2)o1 [Lapatinib] (partner 2 µM)
Method in brief: (§1)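 Lung cancer cell lines were pin-tool dosed in 1536-well plates on the day after seeding, with either a lone drug or a fixed anchor-drug dose plus five library-drug doses (not always all listed) in √10 steps. Nuclei were counted on 4× images after 5 days. Relative viability is the ratio of treated-well to vehicle-well nuclei counts, with each value a median of duplicate plates.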

CAP-232 + Pictilisib = compound: C[C@H]([C@@H](C(=O)N)NC(=O)[C@@H]1CSSC[C@@H](C(=O)N[C@H](C(=O)N[C@@H](C(=O)N[C@H](C(=O)N1)CCCCN)CC2=CNC3=CC=CC=C32)CC4=CC=C(C=C4)O)NC(=O)[C@@H](CC5=CC=CC=C5)N)O [CAP-232] + CS(=O)(=O)N1CCN(Cc2cc3nc(-c4cccc5[nH]ncc45)nc(N4CCOCC4)c3s2)CC1 [Pictilisib] (partner 1 µM)
Method in brief: as §1

CAP-232 + Alpelisib = compound: C[C@H]([C@@H](C(=O)N)NC(=O)[C@@H]1CSSC[C@@H](C(=O)N[C@H](C(=O)N[C@@H](C(=O)N[C@H](C(=O)N1)CCCCN)CC2=CNC3=CC=CC=C32)CC4=CC=C(C=C4)O)NC(=O)[C@@H](CC5=CC=CC=C5)N)O [CAP-232] + Cc1nc(NC(=O)N2CCC[C@H]2C(N)=O)sc1-c1ccnc(C(C)(C)C(F)(F)F)c1 [Alpelisib] (partner 2 µM)
Method in brief: as §1

CAP-232 + Dasatinib = compound: C[C@H]([C@@H](C(=O)N)NC(=O)[C@@H]1CSSC[C@@H](C(=O)N[C@H](C(=O)N[C@@H](C(=O)N[C@H](C(=O)N1)CCCCN)CC2=CNC3=CC=CC=C32)CC4=CC=C(C=C4)O)NC(=O)[C@@H](CC5=CC=CC=C5)N)O [CAP-232] + Cc1nc(Nc2ncc(C(=O)Nc3c(C)cccc3Cl)s2)cc(N2CCN(CCO)CC2)n1 [Dasatinib] (partner 0.075 µM)
Method in brief: as §1

CAP-232 + Phenformin = compound: C[C@H]([C@@H](C(=O)N)NC(=O)[C@@H]1CSSC[C@@H](C(=O)N[C@H](C(=O)N[C@@H](C(=O)N[C@H](C(=O)N1)CCCCN)CC2=CNC3=CC=CC=C32)CC4=CC=C(C=C4)O)NC(=O)[C@@H](CC5=CC=CC=C5)N)O [CAP-232] + N=C(N)NC(=N)NCCc1ccccc1 [Phenformin] (partner 250 µM)
Method in brief: as §1

Row | Cell Line | relative viability (CAP-232 + Lapatinib; first compound 0.4 µM) | relative viability (CAP-232 + Lapatinib; first compound 1.265 µM) | relative viability (CAP-232 + Lapatinib; first compound 4 µM) | relative viability (CAP-232 + Lapatinib; first compound 12.65 µM) | relative viability (CAP-232 + Pictilisib; first compound 0.4 µM) | relative viability (CAP-232 + Pictilisib; first compound 1.265 µM) | relative viability (CAP-232 + Pictilisib; first compound 4 µM) | relative viability (CAP-232 + Pictilisib; first compound 12.65 µM) | relative viability (CAP-232 + Alpelisib; first compound 0.4 µM) | relative viability (CAP-232 + Alpelisib; first compound 1.265 µM) | relative viability (CAP-232 + Alpelisib; first compound 4 µM) | relative viability (CAP-232 + Alpelisib; first compound 12.65 µM) | relative viability (CAP-232 + Dasatinib; first compound 0.4 µM) | relative viability (CAP-232 + Dasatinib; first compound 1.265 µM) | relative viability (CAP-232 + Dasatinib; first compound 4 µM) | relative viability (CAP-232 + Dasatinib; first compound 12.65 µM) | relative viability (CAP-232 + Phenformin; first compound 0.4 µM) | relative viability (CAP-232 + Phenformin; first compound 1.265 µM) | relative viability (CAP-232 + Phenformin; first compound 4 µM) | relative viability (CAP-232 + Phenformin; first compound 12.65 µM)
1 | 201T | 1.11 | 0.98 | 1.04 | 1.04 | 0.765 | 0.657 | 0.678 | 0.713 | 1.05 | 0.975 | 0.992 | 1.04 | 0.536 | 0.549 | 0.614 | 0.556 | 0.487 | 0.419 | 0.416 | 0.443
2 | A549 | 1.1 | 1 | 1.05 | 0.42 | 0.591 | 0.472 | 0.563 | 0.203 | 0.659 | 0.653 | 0.734 | 0.348 |  |  |  |  | 0.164 | 0.183 | 0.146 | 0.113
3 | A-427 | 1.09 | 1.04 | 1.17 | 1.09 | 0.508 | 0.654 | 0.842 | 0.853 | 1.08 | 1.04 | 1.06 | 1.08 | 0.646 | 0.467 | 0.679 | 0.76 | 0.249 | 0.332 | 0.259 | 0.312
4 | ABC-1 | 1 | 1.12 | 0.887 | 1.26 | 0.616 | 0.878 | 0.745 | 0.411 | 1.05 | 1.15 | 1.24 | 0.504 | 0.582 | 0.562 | 0.53 | 0.448 | 0.249 | 0.243 | 0.215 | 0.186
5 | BEN | 0.776 | 0.661 | 0.583 | 0.575 | 0.569 | 0.55 | 0.601 | 0.498 | 1.03 | 1.01 | 1.06 | 0.858 | 0.39 | 0.261 | 0.264 | 0.424 | 0.246 | 0.231 | 0.231 | 0.221
6 | CAL-12T | 0.528 | 0.612 | 0.644 | 0.736 | 0.383 | 0.381 | 0.435 | 0.322 | 1.11 | 1.24 | 1.42 | 0.726 | 0.32 | 0.409 | 0.521 | 0.138 | 0.491 | 0.506 | 0.593 | 0.355
7 | COR-L23 | 1.3 | 0.961 | 1.08 | 0.845 | 0.653 | 0.734 | 0.784 | 0.579 | 0.725 | 0.754 | 0.701 | 0.616 | 0.506 | 0.575 | 0.531 | 0.342 | 0.497 | 0.47 | 0.468 | 0.372
8 | COR-L 105 | 0.333 | 0.376 | 0.354 | 0.33 | 0.346 | 0.43 | 0.37 | 0.31 | 1.09 | 0.917 | 1.16 | 0.594 | 0.337 | 0.352 | 0.273 | 0.249 | 0.423 | 0.429 | 0.501 | 0.287
9 | ChaGo-K-1 |  |  |  |  | 1 | 0.51 | 0.703 | 0.256 |  |  |  |  | 0.666 | 0.611 | 0.614 | 0.506 | 0.487 | 0.466 | 0.601 | 0.505
10 | EKVX | 0.211 | 0.203 | 0.191 | 0.171 | 0.395 | 0.458 | 0.421 | 0.372 | 0.806 | 0.969 | 0.833 | 0.715 | 0.457 | 0.605 | 0.499 | 0.509 | 0.232 | 0.218 | 0.23 | 0.233
11 | EMC-BAC-2 | 0.951 | 0.914 | 0.928 | 0.917 | 0.511 | 0.51 | 0.534 | 0.48 | 0.78 | 0.718 | 0.743 | 0.623 | 0.36 | 0.31 | 0.353 | 0.28 | 0.541 | 0.498 | 0.526 | 0.465
12 | EPLC-272H | 1.25 | 0.86 | 1.04 | 0.971 | 0.284 | 0.281 | 0.325 | 0.287 | 0.895 | 0.959 | 0.988 | 0.941 | 0.402 | 0.306 | 0.321 | 0.386 | 0.276 | 0.285 | 0.319 | 0.322
13 | H3255 | 0.317 | 0.226 | 0.219 | 0.0844 | 0.443 | 0.491 | 0.553 | 0.366 | 0.759 | 0.741 | 0.633 | 0.503 | 0.352 | 0.353 | 0.455 | 0.338 | 0.746 | 0.309 | 0.341 | 0.504
14 | HARA | 0.717 | 0.613 | 0.691 | 0.732 | 0.401 | 0.432 | 0.358 | 0.26 | 0.791 | 0.847 | 0.876 | 0.58 | 0.266 | 0.256 | 0.305 | 0.27 | 0.538 | 0.5 | 0.463 | 0.515
15 | HCC-15 | 0.971 | 0.8 | 0.934 | 0.654 | 0.778 | 0.764 | 0.806 | 0.54 | 0.935 | 0.878 | 0.86 | 0.824 | 0.629 | 0.601 | 0.693 | 0.262 | 0.477 | 0.465 | 0.481 | 0.236
